Bounds are passed on as bounds.

The test system of this experiment is IL-1b. In words: Mouse BMDM IL-1b Assay. Type of experiment: cell-based. Particulars: Macrophage; mouse bone marrow derived macrophages (C57BL6); 200 ng/mL LPS 3 h, compound 30 min, 5 mM ATP 45 min; IL-1b ELISA of supernatant. On the procedure:
Example 20: Mouse BMDM IL-1b Assay
Mouse bone marrow cells from C57BL6 tibia and femur were culture in complete Isocov's Media supplemented with 20 ng/mL MCSF (BMDM media) at a density of 50 million cells/15 cm Petri dish. Fresh media was changed every 3 days, and bone marrow derived macrophages were collected, washed, and counted on day 7. Cells were seeded into 96 well plates at a density of 5×10^4 cells per well in 100 uL of BMDM media and cultured overnight. The cells were stimulated at 37° C. with 200 ng/mL Ultrapure LPS-B5 for 3 hours before pre-diluted compounds were added. 30 minutes after compound addition, 5 mM ATP was added for the secondary stimulation for 45 minutes. After stimulation, the plates were briefly spun down, and 50 uL of supernatant was harvested from each well. ELISA for mouse IL-1b was performed with 1:10 and 1:100 diluted supernatant using pre-coated kits. IL-1b concentrations were calculated based on pre-titrated standards, and compound inhibition IC50 is generated using the Levenberg Marquardt damped lease-square method.
Usually IC50 stands for the concentration that inhibits the measured activity by half. In turn, `CC1(O)CCCc2oc(S(=O)(=O)NC(=O)Nc3c4c(cc5c3CCC5)CCC4)cc21` (stereo not drawn) [Compound 5, N-((1,2,3,5,6,7-hexahydro-s-indacen-4-yl)carbamoyl)-4-hydroxy-4-methyl-4,5,6,7-tetrahydrobenzofuran-2-sulfonamide] showed an IC50 of less than 100 nM. The figure for `O=C(Nc1c2c(cc3c1CCC3)CCC2)NS(=O)(=O)c1cc2c(o1)CCCC2=O` [Compound 6] is 100 to 1000 nM; for `O=C(Nc1c2c(cc3c1CCC3)CCC2)NS(=O)(=O)c1cc2c(o1)CCCC2O` (stereo not drawn) [Compound 8, N-((1,2,3,5,6,7-hexahydro-s-indacen-4-yl)carbamoyl)-4-hydroxy-4,5,6,7-tetrahydrobenzofuran-2-sulfonamide] it is less than 100 nM; for `CC1(C)CCc2oc(S(=O)(=O)NC(=O)Nc3c4c(cc5c3CCC5)CCC4)cc2C1(C)O` (stereo not drawn) [Compound 11, N-((1,2,3,5,6,7-hexahydro-s-indacen-4-yl)carbamoyl)-4-hydroxy-4,5,5-trimethyl-4,5,6,7-tetrahydrobenzofuran-2-sulfonamide] it is less than 100 nM. With `CC1(C)CCC(C)(O)c2cc(S(=O)(=O)NC(=O)Nc3c4c(cc5c3CCC5)CCC4)oc21` (stereo not drawn) [Compound 12, N-((1,2,3,5,6,7-hexahydro-s-indacen-4-yl)carbamoyl)-4-hydroxy-4,7,7-trimethyl-4,5,6,7-tetrahydrobenzofuran-2-sulfonamide], the half-maximal inhibitory concentration (IC50) was less than 100 nM.

`CC1(C)CCc2oc(S(=O)(=O)NC(=O)Nc3c4c(cc5c3CCC5)CCC4)cc2C1=O` [Compound 13, N-((1,2,3,5,6,7-hexahydro-s-indacen-4-yl)carbamoyl)-5,5-dimethyl-4-oxo-4,5,6,7-tetrahydrobenzofuran-2-sulfonamide] displayed a 50% inhibitory concentration (IC50) of 100 to 1000 nM. For `CC1(C)CCc2oc(S(=O)(=O)NC(=O)Nc3c4c(cc5c3CCC5)CCC4)cc2C1O` (stereo not drawn) [Compound 14, N-((1,2,3,5,6,7-hexahydro-s-indacen-4-yl)carbamoyl)-4-hydroxy-5,5-dimethyl-4,5,6,7-tetrahydrobenzofuran-2-sulfonamide] the value was less than 100 nM; for `CC1Cc2oc(S(=O)(=O)NC(=O)Nc3c4c(cc5c3CCC5)CCC4)cc2C(C)(O)C1` (stereo not drawn) [Compound 16, N-((1,2,3,5,6,7-hexahydro-s-indacen-4-yl)carbamoyl)-4-hydroxy-4,6-dimethyl-4,5,6,7-tetrahydrobenzofuran-2-sulfonamide], less than 100 nM. `CC1CC(=O)c2cc(S(=O)(=O)NC(=O)Nc3c4c(cc5c3CCC5)CCC4)oc2C1` (stereo not drawn) [Compound 17, N-((1,2,3,5,6,7-hexahydro-s-indacen-4-yl)carbamoyl)-6-methyl-4-oxo-4,5,6,7-tetrahydrobenzofuran-2-sulfonamide] displayed an IC50 of 100 to 1000 nM.

Compound `CC1Cc2oc(S(=O)(=O)NC(=O)Nc3c4c(cc5c3CCC5)CCC4)cc2C(O)C1` (stereo not drawn) [Compound 18, N-((1,2,3,5,6,7-hexahydro-s-indacen-4-yl)carbamoyl)-4-hydroxy-6-methyl-4,5,6,7-tetrahydrobenzofuran-2-sulfonamide] came in with an IC50 of 100 to 1000 nM. The figure for `CC1(C)Cc2oc(S(=O)(=O)NC(=O)Nc3c4c(cc5c3CCC5)CCC4)cc2C(C)(O)C1` (stereo not drawn) [Compound 20, N-((1,2,3,5,6,7-hexahydro-s-indacen-4-yl)carbamoyl)-4-hydroxy-4,6,6-trimethyl-4,5,6,7-tetrahydrobenzofuran-2-sulfonamide] is less than 100 nM; for `CC1(C)CC(=O)c2cc(S(=O)(=O)NC(=O)Nc3c4c(cc5c3CCC5)CCC4)oc2C1` [Compound 21, N-((1,2,3,5,6,7-hexahydro-s-indacen-4-yl)carbamoyl)-6,6-dimethyl-4-oxo-4,5,6,7-tetrahydrobenzofuran-2-sulfonamide] it is 100 to 1000 nM; for `CC1(C)Cc2oc(S(=O)(=O)NC(=O)Nc3c4c(cc5c3CCC5)CCC4)cc2C(O)C1` (stereo not drawn) [Compound 22, N-((1,2,3,5,6,7-hexahydro-s-indacen-4-yl)carbamoyl)-4-hydroxy-6,6-dimethyl-4,5,6,7-tetrahydrobenzofuran-2-sulfonamide] it is less than 100 nM.

Take `CC1(O)CCCCc2oc(S(=O)(=O)NC(=O)Nc3c4c(cc5c3CCC5)CCC4)cc21` (stereo not drawn) [Compound 24, N-((1,2,3,5,6,7-hexahydro-s-indacen-4-yl)carbamoyl)-4-hydroxy-4-methyl-5,6,7,8-tetrahydro-4H-cyclohepta[b]furan-2-sulfonamide]: the IC50 was less than 100 nM. The compound `O=C(Nc1c2c(cc3c1CCC3)CCC2)NS(=O)(=O)c1cc2c(o1)CCCCC2O` (stereo not drawn) [Compound 25, N-((1,2,3,5,6,7-hexahydro-s-indacen-4-yl)carbamoyl)-4-hydroxy-5,6,7,8-tetrahydro-4H-cyclohepta[b]furan-2-sulfonamide] returned an IC50 of less than 100 nM.

In turn, `CC(C)C1Cc2oc(S(=O)(=O)NC(=O)Nc3c4c(cc5c3CCC5)CCC4)cc2C(C)(O)C1` (stereo not drawn) [Compound 27, N-((1,2,3,5,6,7-hexahydro-s-indacen-4-yl)carbamoyl)-4-hydroxy-6-isopropyl-4-methyl-4,5,6,7-tetrahydrobenzofuran-2-sulfonamide] returned a concentration for half-maximal inhibition (IC50) of less than 100 nM. For `CC(C)C1Cc2oc(S(=O)(=O)NC(=O)Nc3c4c(cc5c3CCC5)CCC4)cc2C(O)C1` (stereo not drawn) [Compound 28, N-((1,2,3,5,6,7-hexahydro-s-indacen-4-yl)carbamoyl)-4-hydroxy-6-isopropyl-4,5,6,7-tetrahydrobenzofuran-2-sulfonamide] the value was 100 to 1000 nM.

For `O=C(Nc1c2c(cc3c1CCC3)CCC2)NS(=O)(=O)c1cc2c(o1)CCCc1c[nH]nc1-2` [Compound 33, N-((1,2,3,5,6,7-hexahydro-s-indacen-4-yl)carbamoyl)-2,4,5,6-tetrahydrofuro[2′,3′:6,7]cyclohepta[1,2-c]pyrazole-8-sulfonamide], the IC50 lay in the range of 100 to 1000 nM. As to `O=C(Nc1c2c(cc3c1CCC3)CCC2)NS(=O)(=O)c1cc2c(o1)CCC/C2=N\O` [Compound 35, (E)-N-((1,2,3,5,6,7-hexahydro-s-indacen-4-yl)carbamoyl)-4-(hydroxyimino)-4,5,6,7-tetrahydrobenzofuran-2-sulfonamide], the IC50 is less than 100 nM. For `O=C(Nc1c2c(cc3c1CCC3)CCC2)NS(=O)(=O)c1cc2c(o1)CCC/C2=N/O` [Compound 36, (Z)—N-((1,2,3,5,6,7-hexahydro-s-indacen-4-yl)carbamoyl)-4-(hydroxyimino)-4,5,6,7-tetrahydrobenzofuran-2-sulfonamide] the value was less than 100 nM; for `O=C(Nc1c2c(cc3c1CCC3)CCC2)NS(=O)(=O)c1cc2c(o1)CCCNC2=O` [Compound 38, N-((1,2,3,5,6,7-hexahydro-s-indacen-4-yl)carbamoyl)-4-oxo-5,6,7,8-tetrahydro-4H-furo[3,2-c]azepine-2-sulfonamide], 100 to 1000 nM; for `O=C(Nc1c2c(c(Br)c3c1CCC3)CCC2)NS(=O)(=O)c1cc2c(o1)CCCC2O` (stereo not drawn) [Compound 39, N-((8-bromo-1,2,3,5,6,7-hexahydro-s-indacen-4-yl)carbamoyl)-4-hydroxy-4,5,6,7-tetrahydrobenzofuran-2-sulfonamide], less than 100 nM.

`CC1(O)CCCc2oc(S(=O)(=O)NC(=O)Nc3c4c(c(Br)c5c3CCC5)CCC4)cc21` (stereo not drawn) [Compound 40, N-((8-bromo-1,2,3,5,6,7-hexahydro-s-indacen-4-yl)carbamoyl)-4-hydroxy-4-methyl-4,5,6,7-tetrahydrobenzofuran-2-sulfonamide] gave an IC50 of less than 100 nM.

Take `CO/N=C1/CCCc2oc(S(=O)(=O)NC(=O)Nc3c4c(cc5c3CCC5)CCC4)cc21` [Compound 41, (Z)-N-((1,2,3,5,6,7-hexahydro-s-indacen-4-yl)carbamoyl)-4-(methoxyimino)-4,5,6,7-tetrahydrobenzofuran-2-sulfonamide]: the IC50 lay within 100 to 1000 nM.

In the case of `CC(=O)NC1CCCc2oc(S(=O)(=O)NC(=O)Nc3c4c(c(Br)c5c3CCC5)CCC4)cc21` (stereo not drawn) [Compound 42, N-(2-(N-((8-bromo-1,2,3,5,6,7-hexahydro-s-indacen-4-yl)carbamoyl)sulfamoyl)-4,5,6,7-tetrahydrobenzofuran-4-yl)acetamide], the IC50 is 100 to 1000 nM. The figure for `O=C(Nc1c2c(c(Cl)c3c1CCC3)CCC2)NS(=O)(=O)c1cc2c(o1)CCCC2O` (stereo not drawn) [Compound 43, N-((8-chloro-1,2,3,5,6,7-hexahydro-s-indacen-4-yl)carbamoyl)-4-hydroxy-4,5,6,7-tetrahydrobenzofuran-2-sulfonamide] is less than 100 nM; for `CC1(O)CCCc2oc(S(=O)(=O)NC(=O)Nc3c4c(c(Cl)c5c3CCC5)CCC4)cc21` (stereo not drawn) [Compound 44, N-((8-chloro-1,2,3,5,6,7-hexahydro-s-indacen-4-yl)carbamoyl)-4-hydroxy-4-methyl-4,5,6,7-tetrahydrobenzofuran-2-sulfonamide] it is less than 100 nM; for `CCC1(O)CCCc2oc(S(=O)(=O)NC(=O)Nc3c4c(cc5c3CCC5)CCC4)cc21` (stereo not drawn) [Compound 45, 4-ethyl-N-((1,2,3,5,6,7-hexahydro-s-indacen-4-yl)carbamoyl)-4-hydroxy-4,5,6,7-tetrahydrobenzofuran-2-sulfonamide] it is less than 100 nM. `O=C(Nc1c2c(c(F)c3c1CCC3)CCC2)NS(=O)(=O)c1cc2c(o1)CCCC2O` (stereo not drawn) [Compound 46, N-((8-fluoro-1,2,3,5,6,7-hexahydro-s-indacen-4-yl)carbamoyl)-4-hydroxy-4,5,6,7-tetrahydrobenzofuran-2-sulfonamide] showed an IC50 of less than 100 nM. The figure for `CC1(O)CCCc2oc(S(=O)(=O)NC(=O)Nc3c4c(c(F)c5c3CCC5)CCC4)cc21` (stereo not drawn) [Compound 47, N-((8-fluoro-1,2,3,5,6,7-hexahydro-s-indacen-4-yl)carbamoyl)-4-hydroxy-4-methyl-4,5,6,7-tetrahydrobenzofuran-2-sulfonamide] is less than 100 nM.

Source of the values: patent US12466800B2, “N-((1,2,3,5,6,7-hexahydro-S-indacen-4-yl)carbamoyl)-4, 5, 6, 7-tetrahydrobenzofuran-2-sulfonamide derivatives and related compounds as NLPR3 modulators for the treatment of multiple sclerosis (MS)” (Zomagen Biosciences Ltd, priority 2019, dated 2025).
